Data published in patent publication USRE39591E1, “6-O-substituted ketolides having antibacterial activity” (Abbott Laboratories, priority 1996, dated 2007).

Tested on: up to 32 different microorganisms
Test: in vitro antibacterial activity (MIC), agar dilution on Brain Heart Infusion (BHI) agar with Steers replicator
Type: cell-based
Details: unit assumed
Procedure: Representative compounds of the present invention were assayed in vitro for antibacterial activity as follows: Twelve petri dishes containing successive aqueous dilutions of the test compound mixed with 10 mL of sterilized Brain Heart Infusion (BHI) agar (Difco 0148-01-5) were prepared. Each plate was inoculated with 1:100 (or 1:10 for slow-growing strains, such as Micrococcus and Streptococcus) dilutions of up to 32 different microorganisms, using a Steers replicator block. The inoculated plates were incubated at 35°-37° C. for 20 to 24 hours. In addition, a control plate, using BHI agar containing no test compound, was prepared and incubated at the beginning and end of each test.
An additional plate containing a compound having known susceptibility patterns for the organisms being tested and belonging to the same antibiotic class as the test compound was also prepared and incubated as a further control, as well as to provide test-to-test comparability. Erythromycin A was used for this purpose.
After incubation, each plate was visually inspected. The minimum inhibitory concentration (MIC) was defined as the lowest concentration of drug yielding no growth, a slight haze, or sparsely isolated colonies on the inoculum spot as compared to the growth control.

[1] = Candida albicans CCH 442 (code TT)
[2] = Enterococcus faecism ATCC 8043 (code II)
[3] = Escherichia coli DC-2 (code SS)
[4] = Escherichia coli JUHL (code QQ)
[5] = Haemophilis influenzae DILL AMP R (code WW)
[6] = Micrococcus luteus ATCC 4698 (code PP)
[7] = Micrococcus luteus ATCC 9341 (code OO)
[8] = Mycobacterium smegmatis ATCC 114 (code UU)
[9] = Nocardia Asteroides ATCC9970 (code VV)
[10] = Staphylococcus aureus 1775 (code GG)
[11] = Staphylococcus aureus A5177 (code BB)
[12] = Staphylococcus aureus A-5278 (code CC)
[13] = Staphylococcus aureus ATCC 6538P (code AA)
[14] = Staphylococcus aureus CMX 553 (code FF)
[15] = Staphylococcus aureus CMX 642A (code DD)
[16] = Staphylococcus aureus NCTC10649M (code EE)
[17] = Staphylococcus epidermidis 3519 (code HH)
[18] = Streptococcus Pneumonia 5649 (code ZZA)
[19] = Streptococcus Pneumonia 5979 (code ZZ)
[20] = Streptococcus Pneumonia ATCC6303 (code XX)
[21] = Streptococcus Pneumonia GYR 1171 (code YY)
[22] = Streptococcus agalactiae CMX 508 (code KK)
[23] = Streptococcus bovis A-5169 (code JJ)
[24] = Streptococcus pyogenes 930 (code MM)
[25] = Streptococcus pyogenes EES61 (code LL)
[26] = Streptococcus pyogenes PIU 2548 (code NN)

Structure (SMILES): CC[C@H]1OC(=O)[C@H](C)C(=O)[C@H](C)[C@@H](O[C@@H]2O[C@H](C)C[C@H](N(C)C)[C@H]2O)[C@@](C)(OCC=Cc2ccc(OC)cc2)C[C@@H](C)C(=O)[C@H](C)[C@@H](O)[C@]1(C)O [Example 16, Compound of Formula (VIII): X is O, R is —CH2CH═CH-(4-methoxyphenyl)]
- MIC [1]: > 100 µg/mL
- MIC [2]: 0.78 µg/mL
- MIC [3]: > 100 µg/mL
- MIC [4]: > 100 µg/mL
- MIC (Escherichia coli SS (code RR)): 6.2 µg/mL
- MIC [5]: 128 µg/mL
- MIC [6]: 0.78 µg/mL
- MIC [7]: 0.2 µg/mL
- MIC [8]: 3.2 µg/mL
- MIC [9]: 1.56 µg/mL
- MIC [10]: > 100 µg/mL
- MIC [11]: 1.56 µg/mL
- MIC [12]: > 100 µg/mL
- MIC [13]: 1.56 µg/mL
- MIC [14]: 1.56 µg/mL
- MIC [15]: 1.56 µg/mL
- MIC [16]: 1.56 µg/mL
- MIC [17]: 1.56 µg/mL
- MIC [18]: 2 µg/mL
- MIC [19]: 128 µg/mL
- MIC [20]: 1 µg/mL
- MIC [21]: 0.25 µg/mL
- MIC [22]: 0.39 µg/mL
- MIC [23]: 0.2 µg/mL
- MIC [24]: > 100 µg/mL
- MIC [25]: 0.39 µg/mL
- MIC [26]: 0.78 µg/mL

Structure (SMILES): CC[C@H]1OC(=O)[C@H](C)C(=O)[C@H](C)[C@@H](O[C@@H]2O[C@H](C)C[C@H](N(C)C)[C@H]2O)[C@@](C)(OCC=Cc2ccc(Cl)cc2)C[C@@H](C)C(=O)[C@H](C)[C@@H](O)[C@]1(C)O [Example 17, Compound of Formula (VIII): X is O, R is —CH2CH═CH-(4-chlorophenyl)]
- MIC [1]: 50 µg/mL
- MIC [2]: 1.56 µg/mL
- MIC [3]: > 100 µg/mL
- MIC [4]: > 100 µg/mL
- MIC (Escherichia coli SS (code RR)): 12.5 µg/mL
- MIC [5]: 64 µg/mL
- MIC [6]: 0.78 µg/mL
- MIC [7]: 0.39 µg/mL
- MIC [8]: 3.1 µg/mL
- MIC [9]: 3.1 µg/mL
- MIC [10]: 50 µg/mL
- MIC [11]: 1.56 µg/mL
- MIC [12]: 50 µg/mL
- MIC [13]: 1.56 µg/mL
- MIC [14]: 1.56 µg/mL
- MIC [15]: 1.56 µg/mL
- MIC [16]: 1.56 µg/mL
- MIC [17]: 1.56 µg/mL
- MIC [18]: 2 µg/mL
- MIC [19]: 32 µg/mL
- MIC [20]: 1 µg/mL
- MIC [21]: 0.5 µg/mL
- MIC [22]: 0.78 µg/mL
- MIC [23]: 0.39 µg/mL
- MIC [24]: 25 µg/mL
- MIC [25]: 0.78 µg/mL
- MIC [26]: 0.78 µg/mL

Structure (SMILES): CC[C@H]1OC(=O)[C@H](C)C(=O)[C@H](C)[C@@H](O[C@@H]2O[C@H](C)C[C@H](N(C)C)[C@H]2O)[C@@](C)(OCC=Cc2cnc3ccccc3c2)C[C@@H](C)C(=O)[C@H](C)[C@@H](O)[C@]1(C)O [Example 18, Compound of Formula (VIII): X is O, R is —CH2CH═CH-(3-quinolyl)]
- MIC [1]: > 100 µg/mL
- MIC [2]: 0.2 µg/mL
- MIC [3]: > 100 µg/mL
- MIC [4]: > 100 µg/mL
- MIC (Escherichia coli SS (code RR)): 0.39 µg/mL
- MIC [5]: 16 µg/mL
- MIC [6]: 0.2 µg/mL
- MIC [9]: 0.1 µg/mL
- MIC [10]: > 100 µg/mL
- MIC [11]: 0.2 µg/mL
- MIC [12]: > 100 µg/mL
- MIC [13]: 0.2 µg/mL
- MIC [14]: 0.2 µg/mL
- MIC [15]: 0.2 µg/mL
- MIC [16]: 0.2 µg/mL
- MIC [17]: 0.2 µg/mL
- MIC [18]: 0.25 µg/mL
- MIC [19]: 128 µg/mL
- MIC [20]: 0.03 µg/mL
- MIC [22]: 0.2 µg/mL
- MIC [24]: 100 µg/mL
- MIC [25]: 0.2 µg/mL
- MIC [26]: 0.1 µg/mL

Structure (SMILES): C=CCO[C@@]1(C)C[C@@H](C)C(=O)[C@H](C)[C@H]2OC(=O)O[C@]2(C)[C@@H](CC)OC(=O)[C@H](C)C(=O)[C@H](C)[C@H]1O[C@@H]1O[C@H](C)C[C@H](N(C)C)[C@H]1O [Example 71, Compound of Formula (IX): L is CO, T is O, R is —CH2CH═CH2]
- MIC [1]: > 100 µg/mL
- MIC [2]: 1.56 µg/mL
- MIC [3]: > 100 µg/mL
- MIC [4]: > 100 µg/mL
- MIC (Escherichia coli SS (code RR)): 3.1 µg/mL
- MIC [5]: 64 µg/mL
- MIC [6]: 0.78 µg/mL
- MIC [8]: 25 µg/mL
- MIC [9]: 0.39 µg/mL
- MIC [10]: > 100 µg/mL
- MIC [11]: 0.39 µg/mL
- MIC [12]: > 100 µg/mL
- MIC [13]: 0.78 µg/mL
- MIC [14]: 3.1 µg/mL
- MIC [15]: 1.56 µg/mL
- MIC [16]: 0.78 µg/mL
- MIC [17]: 3.1 µg/mL
- MIC [18]: 1 µg/mL
- MIC [19]: > 128 µg/mL
- MIC [20]: 0.25 µg/mL
- MIC [21]: 0.25 µg/mL
- MIC [22]: 0.2 µg/mL
- MIC [23]: 0.2 µg/mL
- MIC [24]: > 100 µg/mL
- MIC [25]: 0.39 µg/mL
- MIC [26]: 0.39 µg/mL

Structure (SMILES): CC[C@H]1OC(=O)[C@H](C)C(=O)[C@H](C)[C@@H](O[C@@H]2O[C@H](C)C[C@H](N(C)C)[C@H]2O)[C@@](C)(OCC=Cc2ccccc2)C[C@@H](C)C(=O)[C@H](C)[C@H]2OC(=O)O[C@@]21C [Example 72, Compound of Formula (IX): L is CO, T is O, R is —CH2CH═CH-Phenyl]
- MIC [1]: > 100 µg/mL
- MIC [2]: 0.05 µg/mL
- MIC [3]: > 100 µg/mL
- MIC (Escherichia coli SS (code RR)): 0.78 µg/mL
- MIC [5]: 8 µg/mL
- MIC [6]: 0.1 µg/mL
- MIC [7]: 0.01 µg/mL
- MIC [8]: 0.78 µg/mL
- MIC [9]: 0.1 µg/mL
- MIC [10]: 100 µg/mL
- MIC [11]: 0.1 µg/mL
- MIC [12]: > 100 µg/mL
- MIC [13]: 0.1 µg/mL
- MIC [14]: 0.2 µg/mL
- MIC [15]: 0.1 µg/mL
- MIC [16]: 0.1 µg/mL
- MIC [17]: 0.1 µg/mL
- MIC [18]: 0.5 µg/mL
- MIC [19]: 64 µg/mL
- MIC [20]: 0.06 µg/mL
- MIC [21]: 0.06 µg/mL
- MIC [22]: 0.01 µg/mL
- MIC [23]: 0.01 µg/mL
- MIC [24]: 50 µg/mL
- MIC [25]: < 0.005 µg/mL
- MIC [26]: 0.2 µg/mL
